Measured values from ChEMBL document CHEMBL1144507, “Synthesis and antifungal activity of (Z)-5-arylidenerhodanines” (2007).
Converted amounts (≈) assume the structure as drawn.

Columns and labels:
Nannizzia gypsea = assay: Antifungal activity against Microsporum gypseum C115 after 48 hrs; assay type: functional
Trichophyton rubrum = assay: Antifungal activity against Trichophyton rubrum C113 after 48 hrs; assay type: functional
Trichophyton benhamiae = assay: Antifungal activity against Trichophyton mentagrophytes ATCC 9972 after 48 hrs; assay type: functional, Arthroderma benhamiae; conditions: ATCC 9972, 48 h
Candida albicans [1] = assay: Antifungal activity against Candida albicans ATCC 10231 after 48 hrs; assay type: functional; conditions: ATCC 10231, 48 h
Saccharomyces cerevisiae = assay: Antifungal activity against Saccharomyces cerevisiae ATCC 9763 after 48 hrs; assay type: functional; conditions: ATCC 9763, 48 h
Cryptococcus neoformans [2] = assay: Antifungal activity against Cryptococcus neoformans ATCC 32264 after 48 hrs; assay type: functional; conditions: ATCC 32264, 48 h
Aspergillus niger = assay: Antifungal activity against Aspergillus niger ATCC 9029 after 48 hrs; assay type: functional; conditions: ATCC 9029, 48 h
Aspergillus fumigatus = assay: Antifungal activity against Aspergillus fumigatus ATCC 26934 after 48 hrs; assay type: functional; conditions: ATCC 26934, 48 h
Aspergillus flavus = assay: Antifungal activity against Aspergillus flavus ATCC 9170 after 48 hrs; assay type: functional; conditions: ATCC 9170, 48 h
Candida albicans [3] = assay: Antifungal activity against Candida albicans C125-2000 after 48 hrs; assay type: functional
Candida albicans [4] = assay: Antifungal activity against Candida albicans C126-2000 after 48 hrs; assay type: functional
Candida albicans [5] = assay: Antifungal activity against Candida albicans C127-2000 after 48 hrs; assay type: functional
Candida albicans [6] = assay: Antifungal activity against Candida albicans C128-2000 after 48 hrs; assay type: functional
Candida albicans [7] = assay: Antifungal activity against Candida albicans C130-2000 after 48 hrs; assay type: functional
Nakaseomyces glabratus = assay: Antifungal activity against Candida glabrata C115-2000 after 48 hrs; assay type: functional
Candida parapsilosis = assay: Antifungal activity against Candida parapsilosis C124-2000 after 48 hrs; assay type: functional; conditions: Lodderomyces parapsilosis
Clavispora lusitaniae = assay: Antifungal activity against Candida lusitaniae C131-2000 after 48 hrs; assay type: functional
Torulaspora delbrueckii = assay: Antifungal activity against Candida coliculosa C122-2000 after 48 hrs; assay type: functional
Pichia kudriavzevii = assay: Antifungal activity against Candida krusei C117-2000 after 48 hrs; assay type: functional
Kluyveromyces marxianus = assay: Antifungal activity against Candida kefyr C123-2000 after 48 hrs; assay type: functional
Candida tropicalis = assay: Antifungal activity against Candida tropicalis C131-1997 after 48 hrs; assay type: functional
Cryptococcus neoformans [8] = assay: Antifungal activity against […] ATCC 32264 after 48 hrs; assay type: functional; conditions: ATCC 32264, 48 h
Cryptococcus neoformans [9] = assay: Antifungal activity against Candida neoformans IM 983040 after 48 hrs; assay type: functional
Cryptococcus neoformans [10] = assay: Antifungal activity against […] IM 972724 after 48 hrs; assay type: functional
Cryptococcus neoformans [11] = assay: Antifungal activity against […] IM 042074 after 48 hrs; assay type: functional
Cryptococcus neoformans [12] = assay: Antifungal activity against […] IM 983036 after 48 hrs; assay type: functional
Cryptococcus neoformans [13] = assay: Antifungal activity against […] IM 00319 after 48 hrs; assay type: functional
Cryptococcus neoformans [14] = assay: Antifungal activity against […] IM 972751 after 48 hrs; assay type: functional
Cryptococcus neoformans [15] = assay: Antifungal activity against […] IM 031631 after 48 hrs; assay type: functional
Cryptococcus neoformans [16] = assay: Antifungal activity against […] IM 031706 after 48 hrs; assay type: functional
Cryptococcus neoformans [17] = assay: Antifungal activity against […] IM 961951 after 48 hrs; assay type: functional
Cryptococcus neoformans [18] = assay: Antifungal activity against […] IM 052470 after 48 hrs; assay type: functional
[19] = Cryptococcus neoformans, 48 h, read-out: MFC

Row | Compound | MIC (Nannizzia gypsea) [µg/mL] | MIC (Trichophyton rubrum) [µg/mL] | MIC (Trichophyton benhamiae) [µg/mL] | MIC (Candida albicans [1]) [µg/mL] | MIC (Saccharomyces cerevisiae) [µg/mL] | MIC (Cryptococcus neoformans [2]) [µg/mL] | MIC (Aspergillus niger) [µg/mL] | MIC (Aspergillus fumigatus) [µg/mL] | MIC (Aspergillus flavus) [µg/mL] | MFC (Cryptococcus neoformans [9]) [µg/mL] | MFC (Cryptococcus neoformans [10]) [µg/mL] | MFC (Cryptococcus neoformans [11]) [µg/mL] | MFC (Cryptococcus neoformans [12]) [µg/mL] | MFC (Cryptococcus neoformans [14]) [µg/mL] | MFC (Cryptococcus neoformans [16]) [µg/mL] | MFC (Cryptococcus neoformans [17]) [µg/mL] | MFC (Cryptococcus neoformans [18]) [µg/mL] | also measured
1 | O=C1NC(=S)S/C1=C\c1ccc2c(c1)OCO2 | > 250 | > 250 | > 250 | > 250 | > 250 | > 250 | > 250 | > 250 | > 250 | – | – | – | – | – | – | – | – | –
2 | COc1ccc(/C=C2\SC(=S)NC2=O)cc1 | > 250 | > 250 | > 250 | > 250 | > 250 | > 250 | > 250 | > 250 | > 250 | – | – | – | – | – | – | – | – | –
3 | COc1ccc(/C=C2\SC(=S)NC2=O)c(OC)c1OC | > 250 | > 250 | > 250 | > 250 | > 250 | > 250 | > 250 | > 250 | > 250 | – | – | – | – | – | – | – | – | –
4 | C[C@@H]1[C@H](O)[C@@H](C)/C=C/C=C/C=C/C=C/C=C/C=C/C=C/[C@H](O[C@@H]2O[C@H](C)[C@@H](O)[C@H](N)[C@@H]2O)C[C@@H]2O[C@](O)(C[C@@H](O)C[C@@H](O)[C@H](O)CC[C@@H](O)C[C@@H](O)CC(=O)O[C@H]1C)C[C@H](O)[C@H]2C(=O)O [AMPHOTERICIN B] | – | – | – | – | – | – | – | – | – | 0.13 (≈ 0.141 µM) | 0.06 (≈ 0.0649 µM) | 0.25 (≈ 0.271 µM) | 0.13 (≈ 0.141 µM) | 0.25 (≈ 0.271 µM) | 0.25 (≈ 0.271 µM) | 0.06 (≈ 0.0649 µM) | 0.5 (≈ 0.541 µM) | MFC (Candida albicans [3]): 0.78 µg/mL (≈ 0.844 µM); MFC (Candida albicans [4]): 1.56 µg/mL (≈ 1.69 µM); MFC (Candida albicans [5]): 0.78 µg/mL (≈ 0.844 µM); MFC (Candida albicans [6]): 1.56 µg/mL (≈ 1.69 µM); MFC (Candida albicans [7]): 0.78 µg/mL (≈ 0.844 µM); MFC (Nakaseomyces glabratus): 0.39 µg/mL (≈ 0.422 µM); MFC (Candida parapsilosis): 0.78 µg/mL (≈ 0.844 µM); MFC (Clavispora lusitaniae): 0.39 µg/mL (≈ 0.422 µM); MFC (Torulaspora delbrueckii): 0.36 µg/mL (≈ 0.39 µM); MFC (Pichia kudriavzevii): 0.39 µg/mL (≈ 0.422 µM); MFC (Kluyveromyces marxianus): 0.78 µg/mL (≈ 0.844 µM); MFC (Candida tropicalis): 0.5 µg/mL (≈ 0.541 µM); MFC (Cryptococcus neoformans [8]): 0.25 µg/mL (≈ 0.271 µM); MFC (Cryptococcus neoformans [13]): 0.25 µg/mL (≈ 0.271 µM); MFC (Cryptococcus neoformans [15]; [19]): 0.13 µg/mL (≈ 0.141 µM)
5 | Nc1nc(=O)[nH]cc1F [FLUCYTOSINE] | – | – | – | – | – | – | – | – | – | 7.8 (≈ 60.4 µM) | 3.9 (≈ 30.2 µM) | 3.9 (≈ 30.2 µM) | 7.8 (≈ 60.4 µM) | 15.6 (≈ 121 µM) | 7.8 (≈ 60.4 µM) | 3.9 (≈ 30.2 µM) | 7.8 (≈ 60.4 µM) | MFC (Cryptococcus neoformans [15]; [19]): 7.8 µg/mL (≈ 60.4 µM)
6 | CCC(C)n1ncn(-c2ccc(N3CCN(c4ccc(OCC5COC(Cn6cncn6)(c6ccc(Cl)cc6Cl)O5)cc4)CC3)cc2)c1=O (centres undefined) [ITRACONAZOLE] | – | – | – | – | – | – | – | – | – | < 0.015 | 0.25 (≈ 0.354 µM) | < 0.015 | < 0.015 | < 0.015 | 0.5 (≈ 0.709 µM) | < 0.015 | < 0.015 | MFC (Cryptococcus neoformans [8]): 0.15 µg/mL (≈ 0.213 µM); MFC (Cryptococcus neoformans [13]): < 0.015 µg/mL; MFC (Cryptococcus neoformans [15]; [19]): 0.25 µg/mL (≈ 0.354 µM)
7 | CC(=O)N1CCN(c2ccc(OCC3COC(Cn4ccnc4)(c4ccc(Cl)cc4Cl)O3)cc2)CC1 (centres undefined) [KETOCONAZOLE] | – | – | – | – | – | – | – | – | – | – | – | – | – | – | – | – | – | MFC (Candida albicans [3]): 6.25 µg/mL (≈ 11.8 µM); MFC (Candida albicans [4]): 1.56 µg/mL (≈ 2.94 µM); MFC (Candida albicans [5]): 6.25 µg/mL (≈ 11.8 µM); MFC (Candida albicans [6]): 6.25 µg/mL (≈ 11.8 µM); MFC (Candida albicans [7]): 6.25 µg/mL (≈ 11.8 µM); MFC (Nakaseomyces glabratus): 1.56 µg/mL (≈ 2.94 µM); MFC (Candida parapsilosis): 0.78 µg/mL (≈ 1.47 µM); MFC (Clavispora lusitaniae): 25 µg/mL (≈ 47 µM); MFC (Torulaspora delbrueckii): 0.78 µg/mL (≈ 1.47 µM); MFC (Pichia kudriavzevii): 50 µg/mL (≈ 94.1 µM); MFC (Kluyveromyces marxianus): 0.78 µg/mL (≈ 1.47 µM); MFC (Candida tropicalis): 0.125 µg/mL (≈ 0.235 µM); MFC (Cryptococcus neoformans [8]): 0.25 µg/mL (≈ 0.47 µM)
8 | C[C@@H](c1ncncc1F)[C@](O)(Cn1cncn1)c1ccc(F)cc1F [VORICONAZOLE] | – | – | – | – | – | – | – | – | – | < 0.015 | < 0.015 | < 0.015 | < 0.015 | 0.03 (≈ 0.0859 µM) | 0.5 (≈ 1.43 µM) | 0.015 (≈ 0.0429 µM) | 0.03 (≈ 0.0859 µM) | MFC (Cryptococcus neoformans [13]): < 0.015 µg/mL; MFC (Cryptococcus neoformans [15]): 0.25

Further lines, with some results ahead:

Row | MIC (Nannizzia gypsea) [µg/mL] | MIC (Trichophyton rubrum) [µg/mL] | MIC (Trichophyton benhamiae) [µg/mL] | MIC (Candida albicans [1]) [µg/mL] | MIC (Saccharomyces cerevisiae) [µg/mL] | MIC (Cryptococcus neoformans [2]) [µg/mL] | MIC (Aspergillus niger) [µg/mL] | MIC (Aspergillus fumigatus) [µg/mL] | MIC (Aspergillus flavus) [µg/mL] | Compound | MFC (Cryptococcus neoformans [9]) [µg/mL] | MFC (Cryptococcus neoformans [10]) [µg/mL] | MFC (Cryptococcus neoformans [11]) [µg/mL] | MFC (Cryptococcus neoformans [12]) [µg/mL] | MFC (Cryptococcus neoformans [14]) [µg/mL] | MFC (Cryptococcus neoformans [16]) [µg/mL] | MFC (Cryptococcus neoformans [17]) [µg/mL] | MFC (Cryptococcus neoformans [18]) [µg/mL] | also measured
9 | 62.5 (≈ 244 µM) | 62.5 (≈ 244 µM) | 62.5 (≈ 244 µM) | 250 (≈ 978 µM) | 250 (≈ 978 µM) | 15.6 (≈ 61 µM) | 250 (≈ 978 µM) | 125 (≈ 489 µM) | 125 (≈ 489 µM) | O=C1NC(=S)S/C1=C\c1ccc(Cl)cc1 | – | – | – | – | – | – | – | – | –
10 | > 250 | > 250 | > 250 | > 250 | > 250 | > 250 | > 250 | > 250 | > 250 | O=C1NC(=S)S/C1=C\[n+]1ccccc1 | – | – | – | – | – | – | – | – | –
11 | > 250 | > 250 | > 250 | > 250 | 250 (≈ 833 µM) | 62.5 (≈ 208 µM) | > 250 | > 250 | > 250 | O=C1NC(=S)S/C1=C\c1ccc(Br)cc1 | – | – | – | – | – | – | – | – | –
12 | 3.9 (≈ 16.3 µM) | 3.9 (≈ 16.3 µM) | 3.9 (≈ 16.3 µM) | 250 (≈ 1040 µM) | 250 (≈ 1040 µM) | 15.6 (≈ 65.2 µM) | > 250 | > 250 | > 250 | O=C1NC(=S)S/C1=C\c1ccccc1F | – | – | – | – | – | – | – | – | –
